Test results published in patent publication US12180173B1, “5-((2-isopropyl-5-methylphenoxy)methyl)-3-(naphthalen-1-yl)-1,2,4-oxadiazole as an anti-cancer and antimicrobial compound” (KING FAISAL UNIVERSITY, priority 2023, dated 2024).

Assays:
Type in all cases: cell-based
[1] = system: Aspergillus flavus; assay: Agar plate disc-diffusion, inhibition zone
Procedure: (§1) The agar plate disc-diffusion method was applied. […] The discs were then placed onto the surface of agar plates (nutrient agar for bacteria and Sabouraud's dextrose agar for fungi) seeded with the test organism. Each plate contained 15 mL of the agar medium, previously seeded with 0.2 mL of the broth culture of each organism pregrown for 18 hours. The plates were incubated at 37° C. for 48 h, and 72 h for fungi. The inhibition zones were measured in mm. Discs impregnated with DMSO were used as a control, and its inhibition zone was subtracted from the tested compound actual inhibition zone.

[2] = system: Bacillus cereus; assay: Agar plate disc-diffusion, inhibition zone
Procedure: as §1

[3] = system: Chrysosporium keratinophilum; assay: Agar plate disc-diffusion, inhibition zone
Procedure: as §1

[4] = system: Escherichia coli; assay: Agar plate disc-diffusion, inhibition zone
Procedure: as §1

[5] = system: Pseudomonas aeruginosa; assay: Agar plate disc-diffusion, inhibition zone
Procedure: as §1

[6] = system: Staphylococcus aureus; assay: Agar plate disc-diffusion, inhibition zone
Procedure: as §1

[7] = system: human osteosarcoma cells (MG-63); assay: Cytotoxicity by SRB assay; conditions: MG-63 cells, 0.01 μM to 100 μM for 72 h
Text: (§2) The anticancer activity of the described synthesized compounds against highly aggressive androgen-independent metastatic human prostate cancer cells (PC3) and osteosarcoma (MG-63) cells. The human prostate cancer cells (PC3) and human osteosarcoma cells (MG-63) were obtained from Nawah Scientific Inc. (Mokatam, Cairo, Egypt) and cultured in DMEM (Dulbecco's modified eagle's medium), Gibco, USA, supplemented with fetal bovine serum (FBS) at a concentration of 10% and 100 U/mL of penicillin and streptomycin (PS). The Cells were incubated at 37° C. in a humidified environment that contained 5% CO2.
(§3) Cells were seeded in 96-well plates as aliquots of 100 μL cell suspension and incubated in a complete media for 24 h. afterward, cells were treated with 5-((2-isopropyl-5-methylphenoxy)methyl)-3-(naphthalen-1-yl)-1,2,4-oxadiazole at diverse concentrations ranging from 0.01 μM to 100 μM for 72 h. Then, cells were fixed at 4° C. for one hour with 150 μL of 10% trichloroacetic acid (TCA). […] Then, 150 μL of Tris pH 10.5 (10 mM) was added, and the absorbance was measured at 540 nm using a BMG LABTECH®-FLUOstar Omega microplate reader (Ortenberg, Germany). Half maximal inhibitory concentrations (IC50) values were calculated for each experiment using GraphPad Prism 6 software. […]
(§4) The inhibition was calculated using the following equation: Inhibition %=100−Average Viability

[8] = system: human prostate cancer cells (PC3); assay: Cytotoxicity by SRB assay; conditions: 0.01 μM to 100 μM for 72 h
Text: as §2, §3, §4

[9] = system: different microbes; assay: Antimicrobial activity, agar plate disc-diffusion (overall statement); conditions: against different microbes (bacteria and fungi)
Procedure: The agar plate disc-diffusion method was applied. Sterilized filter papers (6 mm in diameter) were wetted with 10 μL of a solution of 5-((2-isopropyl-5-methylphenoxy)methyl)-3-(naphthalen-1-yl)-1,2,4-oxadiazole (3) to be tested, containing 10 mg/mL in DMSO, and the discs were allowed to air dry. The discs were then placed onto the surface of agar plates (nutrient agar for bacteria and Sabouraud's dextrose agar for fungi) seeded with the test organism. Each plate contained 15 mL of the agar medium, previously seeded with 0.2 mL of the broth culture of each organism pregrown for 18 hours. The plates were incubated at 37° C. for 48 h, and 72 h for fungi. The inhibition zones were measured in mm. Discs impregnated with DMSO were used as a control, and its inhibition zone was subtracted from the tested compound actual inhibition zone.

[10] = A = concentration of comp. = 10,000 μL
[11] = B = concentration of comp. = 30,000 μL
[12] = C = concentration of comp. = 50,000 μL

Compound	inhibition zone [1, 10] [mm]	inhibition zone [1, 11] [mm]	inhibition zone [1, 12] [mm]	inhibition zone [2, 10] [mm]	inhibition zone [2, 11] [mm]	inhibition zone [2, 12] [mm]	inhibition zone [3, 10] [mm]	inhibition zone [3, 11] [mm]	inhibition zone [3, 12] [mm]	inhibition zone [4, 10] [mm]	inhibition zone [4, 11] [mm]	inhibition zone [4, 12] [mm]	inhibition zone [5, 10] [mm]	inhibition zone [5, 11] [mm]	inhibition zone [5, 12] [mm]	inhibition zone [6, 10] [mm]	inhibition zone [6, 11] [mm]	inhibition zone [6, 12] [mm]	also measured
O=C(O)c1cn(C2CC2)c2cc(N3CCNCC3)c(F)cc2c1=O [Cip., ciprofloxacin, reference compound]	29	30	42	29	30	42	29	30	53	30	39	60	29	30	53	43	44	53	–
Cc1ccc(C(C)C)c(OCc2nc(-c3cccc4ccccc34)no2)c1 [Compound 3, 5-((2-isopropyl-5-methylphenoxy)methyl)-3-(naphthalen-1-yl)-1,2,4-oxadiazole]	18	22	30	28	30	39	27	29	46	29	32	51	24	28	37	14	21	24	antiproliferative activity [7]: excellent antiproliferative activities; antiproliferative activity [8]: excellent antiproliferative activities; antimicrobial activity [9]: excellent antimicrobial activities
